We go through one molecule from patent publication US20150191445A1, “ACYL-HYDRAZONE AND OXADIAZOLE COMPOUNDS, PHARMACEUTICAL COMPOSITIONS CONTAINING THE SAME AND USES THEREOF” (Universidade Federal de Santa Catarina, priority 2011, published 2015).

Entries after “also recorded” stand apart in the source; their conditions may differ.

In series [1] the test system is healthy and phytohemagglutinin-stimulated lymphocytes. The series can be described thus: MTT assay on normal lymphocytes stimulated with phytohemagglutinin. It counts as cell-based, human. To be noted: for Percentage of survival: 48 h, MTT. As for the experimental part: for the test of compound 07 against normal lymphocytes, blood from human donors was separated in a ficoll gradient and the mononuclear cells were cultivated at 200,000 cells/well, in 80 microliters of RPMI-1640 (containing 10% FBS, 100 IU/mL penicillin and 100 μg/mL streptomycin) and 20 microliters of phytohemagglutinin solution (Cultilab) in each well for stimulation of T lymphocytes. Compound 07 was added in serial dilutions (50%) from 300 to 1 nm. As a control, parallel tests were run with cells from leukemic Jurkat and REH cell lines, and experiments with colchicine with the same concentrations as compound 07. Cytotoxicity was assessed after 48 hours by the MTT method, as described Above.
On the technique in general: Tetrazolium dyes change colour on reduction, which living cells bring about.

Series [2] has as its target Trypanosoma cruzi cruzain (Trypanosoma cruzi, UniProt P25779). To be noted: cited from earlier work.
Series [3] deals with human leukemic Jurkat cells and HEK. Nature of the series: Screening of compounds by cell viability assay (MTT) in leukemic cells. It counts as cell-based. To be noted: leukemic cells of Jurkat and HEK strains. As for the experimental part: RPMI-1640 medium with 10% FBS (fetal bovine serum), 100 IU/mL penicillin, 100 µg/mL streptomycin and incubated at 37° C. and 5% CO2. Cytotoxicity assays were performed according to the method described in the literature (Pieters, R.; et al. In vitro drug sensitivity of cells from children with leukemia using the MTT assay with improved culture conditions. Blood, 1990, 76, 2327-2336; Pieters, R.; et al. Relation of cellular drug resistance to long-term clinical outcome in childhood acute lymphoblastic leukaemia. Lancet, 1991, 338, 399-403 e Kaspers, G. J.; et al. In vitro cellular drug resistance and prognosis in newly diagnosed childhood acute lymphoblastic leukemia. Blood, 1997, 90, 2723). Cells were resuspended at a concentration of 3.75 10^5 cells/mL in culture medium as described. Eighty microliters of this suspension were seeded into plates with 96 round-bottom wells, containing 20 microliters of different concentrations of compound or vehicle alone. Each treatment was done in triplicate. […] After incubating overnight, absorbance reading at 570 nm was carried out. The percentage of cells surviving the treatment were calculated relative to the number of surviving cells in the medium without addition of the compounds in question (“negative control”). […]

The test system of the next series is Jurkat cells. Nature of the series: Quantification of apoptosis with Annexin V/PI labeling. The series is classed as cell-based, human. To be noted: 125 nM, 18 h. As for the experimental part: The cells were incubated for 12 hours in fresh medium before experiments. Two million cells from the Jurkat line were incubated for 12 h, 18 h, 24 h and 30 h in RPMI-640 medium supplemented with 10% Fetal Bovine Serum (FCS) and 0.2% Penicillin/Streptomycin (PS) with a concentration of 125 nM of compound 07 or DMSO (vehicle).
The cells treated or not with compound 07 were rinsed in PBS and labeled with Annexin V Apoptosis Assay kit (Invitrogen). Briefly, cells were resuspended in appropriate buffer containing calcium and incubated for 15 min with Annexin V-FITC and propidium iodide 5 μg/mL. 10,000 events were collected on FACSCalibur flow cytometer, excluding any debris by forward vs standard, side scatter, with quantification of green and red fluorescence.

Trypanosoma cruzi cruzain, sequence (P25779 123-467): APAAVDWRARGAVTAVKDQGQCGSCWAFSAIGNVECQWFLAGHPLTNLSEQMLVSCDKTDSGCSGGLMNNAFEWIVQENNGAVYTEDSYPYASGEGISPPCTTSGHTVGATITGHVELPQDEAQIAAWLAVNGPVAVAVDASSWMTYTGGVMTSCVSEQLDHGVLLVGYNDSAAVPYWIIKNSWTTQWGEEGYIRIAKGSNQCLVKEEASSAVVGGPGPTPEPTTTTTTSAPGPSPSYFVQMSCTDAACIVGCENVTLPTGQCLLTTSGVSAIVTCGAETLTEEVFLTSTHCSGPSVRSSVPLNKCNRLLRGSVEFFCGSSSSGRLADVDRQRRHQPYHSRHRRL

For `COc1cc(C(=O)NN=Cc2cccc3ccccc23)cc(OC)c1OC` [Compound 07], the “effect on normal lymphocytes induced by phytohemagglutinin” value in series [1] is recorded as “do not appear to affect normal lymphocytes”. Moreover, the “selectivity for leukemic cells compared to healthy human lymphocytes” value in series [1] was roughly 10 times. In addition, the Percentage of survival was 103% in series [1] (4.6 nM); 105% in series [1] (9.38 nM); 105% in series [1] (18.75 nM); 101% in series [1] (37.5 nM); 108% in series [1] (75 nM); 107% in series [1] (150 nM). The molecule further returned a Percentage of survival in series [1] (300 nM) of 95%. The “inhibitory activity of cruzain” value in series [2] is “did not show inhibitory activity”. Also, in series [3], the antileukemic activity entry is “excellent antileukemic activity; also recorded: significant antileukemic activity”. Moreover, the induction of apoptosis result in the series with Jurkat cells is “strong inducer of apoptosis”.
